In ChEMBL document CHEMBL4602617, “Discovery and optimization of heteroaryl piperazines as potent and selective PI3Kδ inhibitors” (Bioorg Med Chem Lett, 2020):
pIC50: −log10 of the molar value.

What was measured:
[1] = molecular target: Beta-1 adrenergic receptor (Homo sapiens) (UniProt P08588); test: Displacement of [125I]cyanopindolol from full-length recombinant human beta1 adrenergic receptor expressed in CHOK1 cells at 10 uM measured after 120 mins by scintillation counting method relative to control; assay type: cell-based; conditions: CHO-K1
[2] = molecular target: Corticotropin-releasing factor receptor 1 (Homo sapiens) (UniProt P34998); test: Displacement of [125I](Tyr0)-CRF from recombinant full length human recombinant CRF1 expressed in CHO-K1 cells at 10 uM measured after 60 mins by radiometric scintillation analysis relative to control; assay type: cell-based
[3] = molecular target: Sodium channel protein type 5 subunit alpha (Homo sapiens, UniProt Q14524); test: Inhibition of Nav1.5 (unknown origin)
[4] = molecular target: Cytoplasmic tyrosine-protein kinase BMX (Homo sapiens, UniProt P51813); test: Inhibition of recombinant full length human His-tagged BMX cytoplasmic domain expressed in baculovirus expression system using tyrosine-1 peptide as substrate incubated for 60 mins in presence of ATP by Z'-LYTE assay
[5] = molecular target: Ribosomal protein S6 kinase alpha-2 (Homo sapiens, UniProt Q15349); test: Inhibition of recombinant full length human GST-tagged RPS6KA2 expressed in insect expression system using Ser/Thr 06 peptide as substrate incubated for 60 mins in presence of ATP by Z'-LYTE assay
[6] = molecular target: Protein kinase C theta type (Homo sapiens, UniProt Q04759); test: Inhibition of recombinant full length human His-tagged PKCtheta expressed in baculovirus expression system using serine/threonine-7 peptide as substrate incubated for 60 mins in presence of ATP by Z'-LYTE assay
[7] = molecular target: Serine/threonine-protein kinase DCLK2 (Homo sapiens, UniProt Q8N568); test: Inhibition of recombinant full length human GST-tagged DCAMKL2 expressed in baculovirus expression system using serine/threonine-17 peptide as substrate incubated for 60 mins in presence of ATP by Z'-LYTE assay
[8] = molecular target: Phosphatidylinositol 4-kinase alpha (Homo sapiens, UniProt P42356); test: Inhibition of recombinant full length human N-terminal GST-tagged PI4KA expressed in baculovirus expression system using PI lipid as substrate incubated for 60 mins in presence of ATP by Adapta assay
[9] = molecular target: Alpha-2B adrenergic receptor (Homo sapiens) (UniProt P18089); test: Displacement of [3H]rauwolscine from full-length recombinant human alpha2B receptor expressed in CHOK1 cells at 10 uM measured after 60 mins by scintillation counting method relative to control; assay type: cell-based; conditions: CHO-K1
[10] = molecular target: B2 bradykinin receptor (Homo sapiens) (UniProt P30411); test: Displacement of [3H]bradykinin from recombinant full length human recombinant bradykinin B2 receptor expressed in Chem-1 cells at 10 uM measured after 60 mins by radiometric scintillation analysis relative to control; assay type: cell-based
[11] = molecular target: Casein kinase I isoform gamma-2 (Homo sapiens, UniProt P78368); test: Inhibition of recombinant human full-length His-tagged CSNK1G2 expressed in baculovirus expression system using FRET-labeled Ser/Thr 05 peptide as substrate measured after 1 hr in presence of ATP by Z'-lyte assay
[12] = molecular target: Serine/threonine-protein kinase PLK2 (Homo sapiens, UniProt Q9NYY3); test: Inhibition of recombinant full length human GST-tagged PLK2 expressed in baculovirus expression system using serine/threonine-16 peptide as substrate incubated for 60 mins in presence of ATP by Z'-LYTE assay
Homo sapiens = organism: Homo sapiens; test: Inhibition of human nicotinic acetylcholine receptor at 10 uM relative to control
[13] = molecular target: Retinoic acid receptor RXR-alpha (Homo sapiens) (UniProt P19793); test: Displacement of [3H]-9-cis-Retinoic acid from human recombinant RXRalpha receptor LBD domain expressed in Escherichia coli at 10 uM measured after 16 hrs by radiometric scintillation analysis relative to control
[14] = molecular target: GABA-A receptor; anion channel (Rattus norvegicus) (UniProt O09028+P15431+P18506+P18508+P19969+P20236+P23574+P23576+P28471+P28473+P30191+P62813+P63079+P63138+Q91ZM7+Q9ES14); test: Displacement of [3H]-Ro15-1788 from GABA(A) receptor in Wistar rat hippocampus at 10 uM incubated for 120 mins by radiometric scintillation analysis relative to control; assay type: tissue-based
Cavia porcellus = organism: Cavia porcellus; test: Displacement of [3H]nitrobenzylthioinosine from adenosine transporter in guinea pig cerebral cortical membranes at 10 uM after 30 mins by radiometric scintillation analysis relative to control
[15] = molecular target: Serine/threonine-protein kinase 24 (Homo sapiens, UniProt Q9Y6E0); test: Inhibition of recombinant full length human GST-tagged MST3 expressed in baculovirus expression system using serine/threonine-7 peptide as substrate incubated for 60 mins in presence of ATP by Z'-LYTE assay
[16] = molecular target: Muscarinic acetylcholine receptor M5 (Homo sapiens) (UniProt P08912); test: Displacement of [3H]N-Methylscopolamine from full length human recombinant Muscarinic M5 receptor expressed in CHOK1 cells at 10 uM measured after 120 mins by radiometric scintillation analysis relative to control; assay type: cell-based; conditions: CHO-K1
[17] = molecular target: Dual specificity mitogen-activated protein kinase kinase 1 (Homo sapiens, UniProt Q02750); test: Inhibition of recombinant full length human His-tagged MEK1 expressed in baculovirus expression system using serine/threonine-3 peptide as substrate incubated for 60 mins in presence of ATP by Z'-LYTE assay
[18] = molecular target: Vascular endothelial growth factor receptor 2 (Homo sapiens, UniProt P35968); test: Inhibition of recombinant human His-tagged KDR (789 to 1356 residues) expressed in baculovirus expression system using Tyr1 as substrate incubated for 1 hr in presence of ATP by Z'-LYTE assay
SRSF protein kinase 3 = SRSF protein kinase 3 (Homo sapiens, UniProt Q9UPE1); test: Inhibition of recombinant full length human GST-tagged MSSK1 expressed in baculovirus expression system using serine/threonine-18 peptide as substrate incubated for 60 mins in presence of ATP by Z'-LYTE assay
[19] = molecular target: PI3-kinase p110-delta/p85-alpha (Homo sapiens, UniProt O00329); test: Inhibition of His-tagged recombinant human PI3K p110delta/p85alpha expressed in baculovirus expression system using PIP2:PS lipid as substrate in presence of ATP after 1 hr by Adapta assay
[20] = molecular target: Protein kinase C beta type (Homo sapiens, UniProt P05771); test: Inhibition of recombinant full length human GST-tagged PKCbeta2 expressed in insect expression system using serine/threonine-7 peptide as substrate incubated for 60 mins in presence of ATP by Z'-LYTE assay
[21] = molecular target: Homeodomain-interacting protein kinase 3 (Homo sapiens, UniProt Q9H422); test: Inhibition of recombinant human His-tagged HIPK3 catalytic domain expressed in baculovirus expression system using serine/threonine-9 peptide as substrate incubated for 60 mins in presence of ATP by Z'-LYTE assay
[22] = molecular target: Prostaglandin F2-alpha receptor (Homo sapiens) (UniProt P43088); test: Displacement of [3H]PGF2alpha from full length human recombinant prostanoid FP receptor expressed in HEK293 cells at 10 uM measured after 60 mins by radiometric scintillation analysis relative to control; assay type: cell-based
[23] = molecular target: Cysteinyl leukotriene receptor 2 (Homo sapiens) (UniProt Q9NS75); test: Inhibition of human CYSLt2 receptor at 10 uM relative to control
Cysteinyl leukotriene receptor 2 (Homo sapiens), sequence (Q9NS75 whole entry): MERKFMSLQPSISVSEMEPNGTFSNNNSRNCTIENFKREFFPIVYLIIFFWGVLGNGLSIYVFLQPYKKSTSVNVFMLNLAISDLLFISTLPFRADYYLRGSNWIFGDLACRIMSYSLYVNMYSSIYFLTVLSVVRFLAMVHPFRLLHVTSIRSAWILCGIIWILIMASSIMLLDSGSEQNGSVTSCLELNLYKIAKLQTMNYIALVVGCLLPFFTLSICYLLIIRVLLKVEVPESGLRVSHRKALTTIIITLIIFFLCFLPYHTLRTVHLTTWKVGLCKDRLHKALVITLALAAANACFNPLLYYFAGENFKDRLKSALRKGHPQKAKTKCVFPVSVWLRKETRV

Homeodomain-interacting protein kinase 3, sequence (Q9H422 whole entry, the tested form may be a part): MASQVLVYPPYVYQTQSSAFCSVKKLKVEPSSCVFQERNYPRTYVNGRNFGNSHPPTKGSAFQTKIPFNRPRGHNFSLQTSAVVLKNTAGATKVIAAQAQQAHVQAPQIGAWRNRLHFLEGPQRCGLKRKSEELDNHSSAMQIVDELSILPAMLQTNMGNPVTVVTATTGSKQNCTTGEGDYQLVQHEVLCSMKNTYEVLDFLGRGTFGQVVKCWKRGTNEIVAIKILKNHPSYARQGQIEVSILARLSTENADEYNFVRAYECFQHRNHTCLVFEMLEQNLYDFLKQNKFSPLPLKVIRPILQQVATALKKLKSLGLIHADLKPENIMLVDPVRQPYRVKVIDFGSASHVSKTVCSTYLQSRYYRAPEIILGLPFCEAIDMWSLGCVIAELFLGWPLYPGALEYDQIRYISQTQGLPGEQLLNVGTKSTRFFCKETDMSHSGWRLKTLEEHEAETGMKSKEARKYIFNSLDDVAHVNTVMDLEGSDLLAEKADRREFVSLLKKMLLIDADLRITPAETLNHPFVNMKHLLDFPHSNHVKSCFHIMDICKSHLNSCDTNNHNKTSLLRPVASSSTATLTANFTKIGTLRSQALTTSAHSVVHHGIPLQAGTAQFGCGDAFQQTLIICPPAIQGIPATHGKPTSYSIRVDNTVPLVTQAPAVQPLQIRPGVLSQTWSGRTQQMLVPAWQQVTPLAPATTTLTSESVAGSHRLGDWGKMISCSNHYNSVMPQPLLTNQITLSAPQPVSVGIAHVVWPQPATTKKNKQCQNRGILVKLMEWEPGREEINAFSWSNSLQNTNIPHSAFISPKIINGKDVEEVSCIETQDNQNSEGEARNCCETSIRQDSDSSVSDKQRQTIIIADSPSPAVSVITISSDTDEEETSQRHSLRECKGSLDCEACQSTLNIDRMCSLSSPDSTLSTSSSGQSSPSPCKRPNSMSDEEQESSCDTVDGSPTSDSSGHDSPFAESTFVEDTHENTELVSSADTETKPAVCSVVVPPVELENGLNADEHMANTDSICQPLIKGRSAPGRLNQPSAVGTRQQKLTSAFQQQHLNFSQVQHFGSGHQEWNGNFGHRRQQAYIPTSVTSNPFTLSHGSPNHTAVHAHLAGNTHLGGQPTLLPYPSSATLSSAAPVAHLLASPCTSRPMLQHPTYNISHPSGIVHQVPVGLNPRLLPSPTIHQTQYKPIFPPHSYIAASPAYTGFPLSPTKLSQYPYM
B2 bradykinin receptor (Homo sapiens), sequence (P30411 whole entry, canonical isoform): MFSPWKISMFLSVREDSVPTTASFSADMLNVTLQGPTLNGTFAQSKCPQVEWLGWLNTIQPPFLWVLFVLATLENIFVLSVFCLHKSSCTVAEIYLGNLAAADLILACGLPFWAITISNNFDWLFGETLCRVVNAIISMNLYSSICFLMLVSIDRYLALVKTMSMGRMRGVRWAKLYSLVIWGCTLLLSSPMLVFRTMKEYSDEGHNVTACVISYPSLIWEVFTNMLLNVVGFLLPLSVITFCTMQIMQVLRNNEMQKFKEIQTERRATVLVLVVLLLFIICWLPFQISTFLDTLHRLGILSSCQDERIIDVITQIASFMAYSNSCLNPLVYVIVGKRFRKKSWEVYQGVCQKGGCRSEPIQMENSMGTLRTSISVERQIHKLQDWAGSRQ
Serine/threonine-protein kinase PLK2, sequence (Q9NYY3 whole entry): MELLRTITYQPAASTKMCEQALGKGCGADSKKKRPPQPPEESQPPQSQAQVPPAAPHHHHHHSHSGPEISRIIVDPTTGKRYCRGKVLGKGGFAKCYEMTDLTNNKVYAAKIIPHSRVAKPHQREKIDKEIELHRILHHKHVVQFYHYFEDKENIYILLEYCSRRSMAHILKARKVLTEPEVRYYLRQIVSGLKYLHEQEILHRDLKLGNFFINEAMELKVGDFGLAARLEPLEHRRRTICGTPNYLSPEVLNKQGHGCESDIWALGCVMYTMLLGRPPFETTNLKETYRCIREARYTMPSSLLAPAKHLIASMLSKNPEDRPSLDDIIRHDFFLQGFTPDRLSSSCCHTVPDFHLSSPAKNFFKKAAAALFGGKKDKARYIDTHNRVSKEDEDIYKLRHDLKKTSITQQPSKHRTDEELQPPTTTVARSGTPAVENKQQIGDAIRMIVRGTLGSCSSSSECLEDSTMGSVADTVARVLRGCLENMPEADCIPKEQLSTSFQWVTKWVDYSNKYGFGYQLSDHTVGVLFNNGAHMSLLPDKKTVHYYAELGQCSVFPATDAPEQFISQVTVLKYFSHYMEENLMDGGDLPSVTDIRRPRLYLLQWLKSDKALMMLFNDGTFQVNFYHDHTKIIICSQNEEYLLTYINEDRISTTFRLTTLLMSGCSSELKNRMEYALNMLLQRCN
Beta-1 adrenergic receptor (Homo sapiens), sequence (P08588 whole entry, looked up): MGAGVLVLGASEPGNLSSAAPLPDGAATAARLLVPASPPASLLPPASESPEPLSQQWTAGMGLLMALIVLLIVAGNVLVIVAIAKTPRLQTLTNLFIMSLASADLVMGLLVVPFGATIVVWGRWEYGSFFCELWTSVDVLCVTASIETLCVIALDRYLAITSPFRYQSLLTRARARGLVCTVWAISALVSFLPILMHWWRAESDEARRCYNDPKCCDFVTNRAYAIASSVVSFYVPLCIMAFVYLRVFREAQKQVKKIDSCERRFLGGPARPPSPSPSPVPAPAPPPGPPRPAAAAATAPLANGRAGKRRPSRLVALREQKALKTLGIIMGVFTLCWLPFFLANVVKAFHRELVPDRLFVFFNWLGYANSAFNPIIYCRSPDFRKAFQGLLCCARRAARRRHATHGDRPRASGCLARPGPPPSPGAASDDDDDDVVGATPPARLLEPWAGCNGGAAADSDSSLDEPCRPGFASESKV
Cytoplasmic tyrosine-protein kinase BMX, sequence (P51813 whole entry, the tested form may be a part): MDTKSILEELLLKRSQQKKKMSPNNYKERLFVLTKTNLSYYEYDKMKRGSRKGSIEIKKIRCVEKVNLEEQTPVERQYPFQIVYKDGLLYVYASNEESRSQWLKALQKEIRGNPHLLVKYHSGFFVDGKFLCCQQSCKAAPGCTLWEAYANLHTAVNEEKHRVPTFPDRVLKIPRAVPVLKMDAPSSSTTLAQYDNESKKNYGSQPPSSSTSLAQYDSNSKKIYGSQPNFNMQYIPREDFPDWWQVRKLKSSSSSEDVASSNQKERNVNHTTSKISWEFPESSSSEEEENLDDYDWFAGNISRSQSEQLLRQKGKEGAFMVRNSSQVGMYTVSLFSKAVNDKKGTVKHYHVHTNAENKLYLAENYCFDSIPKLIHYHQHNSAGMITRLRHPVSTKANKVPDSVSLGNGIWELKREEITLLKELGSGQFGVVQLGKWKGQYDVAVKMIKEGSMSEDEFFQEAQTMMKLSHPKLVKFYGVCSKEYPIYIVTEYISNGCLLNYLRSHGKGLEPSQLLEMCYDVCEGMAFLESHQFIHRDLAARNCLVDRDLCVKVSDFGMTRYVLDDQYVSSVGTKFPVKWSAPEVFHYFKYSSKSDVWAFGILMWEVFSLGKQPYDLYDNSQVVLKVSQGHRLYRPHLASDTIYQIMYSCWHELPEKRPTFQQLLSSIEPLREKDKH
Casein kinase I isoform gamma-2, sequence (P78368 whole entry, canonical isoform): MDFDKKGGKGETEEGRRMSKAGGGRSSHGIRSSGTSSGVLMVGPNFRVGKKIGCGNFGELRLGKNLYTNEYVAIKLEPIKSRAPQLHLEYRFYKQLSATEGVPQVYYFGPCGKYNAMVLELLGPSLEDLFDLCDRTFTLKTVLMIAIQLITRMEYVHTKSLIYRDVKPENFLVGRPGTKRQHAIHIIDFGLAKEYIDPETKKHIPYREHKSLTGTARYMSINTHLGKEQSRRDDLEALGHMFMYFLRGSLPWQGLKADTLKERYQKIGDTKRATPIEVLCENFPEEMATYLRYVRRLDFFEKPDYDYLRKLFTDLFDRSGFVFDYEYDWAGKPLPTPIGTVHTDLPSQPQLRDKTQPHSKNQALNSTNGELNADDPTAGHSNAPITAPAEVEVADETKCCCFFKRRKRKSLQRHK
SRSF protein kinase 3, sequence (Q9UPE1 whole entry): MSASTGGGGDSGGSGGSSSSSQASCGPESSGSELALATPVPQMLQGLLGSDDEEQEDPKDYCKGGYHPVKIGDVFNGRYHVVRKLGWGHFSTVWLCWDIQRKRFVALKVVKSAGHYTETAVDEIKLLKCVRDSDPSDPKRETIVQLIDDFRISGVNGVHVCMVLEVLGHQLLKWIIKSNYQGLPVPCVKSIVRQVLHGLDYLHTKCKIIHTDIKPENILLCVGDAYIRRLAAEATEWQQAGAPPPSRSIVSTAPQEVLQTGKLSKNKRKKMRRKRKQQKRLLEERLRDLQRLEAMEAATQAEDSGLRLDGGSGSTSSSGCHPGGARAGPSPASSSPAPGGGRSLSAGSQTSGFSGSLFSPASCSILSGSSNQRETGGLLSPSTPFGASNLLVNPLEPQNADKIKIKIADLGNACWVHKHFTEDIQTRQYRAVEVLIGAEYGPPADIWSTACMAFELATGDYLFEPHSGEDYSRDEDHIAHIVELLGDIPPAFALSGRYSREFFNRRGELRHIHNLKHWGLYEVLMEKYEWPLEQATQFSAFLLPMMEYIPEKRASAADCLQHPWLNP

SMILES: C[C@@H]1C[C@H]1C(=O)N1CCN(c2cnc(C#N)c(-c3cnn(C)c3)n2)C[C@H]1C
- inhibition [1]: 4%
- inhibition [2]: 6%
- pIC50 [3]: < 4.52
- pIC50 [4]: < 4.00
- pIC50 [5]: < 4.00
- pIC50 [6]: < 4.00
- pIC50 [7]: < 4.00
- pIC50 [8]: < 4.00
- inhibition [9]: 11%
- inhibition [10]: 6%
- pIC50 [11]: < 4.00
- pIC50 [12]: < 4.00
- inhibition (Homo sapiens): 10%
- inhibition [13]: 8%
- inhibition [14]: -3%
- inhibition (Cavia porcellus): 41%
- pIC50 [15]: < 4.00
- inhibition [16]: 1%
- pIC50 [17]: < 4.00
- pIC50 [18]: 4.42
- pIC50 (SRSF protein kinase 3): < 4.00
- pIC50 [19]: 6.05
- pIC50 [20]: < 4.00
- pIC50 [21]: < 4.00
- inhibition [22]: 9%
- inhibition [23]: 15%
